Legend:
WDR5 [1] = target: T1, WDR5 (Homo sapiens, UniProt P61964); test: Fluorescence Polarization (FP) binding assay
How it was run: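 Buffer was pH 6.5 sodium phosphate (80 mM) with 20 mM KCl and 0.008% Triton X-100; 9-Ala-FAM probe at 20 nM used 0.05 μM WDR5 and 480/540 nm polarization, H3 (1-15) probe at 30 nM used 0.3 μM WDR5 and 485/528 nm. Quadruplicate data were hyperbola-fitted to give Kdisp.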

MV4-11 cells = test: Cell proliferation assay (ATPlite); assay type: cell-based; settings: Homo sapiens, 120 h; MV4-11 cells, five days; read-out: GI MV411 EC50
How it was run: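 ATPlite luminescence after five days' culture (37° C, 5% CO2) gives viability. Compounds dosed in 10 concentrations up to 10 μM against DMSO; 1,000 cells/well seeded in Alpha-MEM/10% FBS.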

WDR5 [2] = target: T1, WDR5; test: Surface Plasmon Resonance (SPR) assay; assay type: binding; design: Full length WDR5 with an N-terminal His tag and C-terminal AviTag; His tag (N); made in house; host or cells: E. coli; settings: read-out: SPR Kd
How it was run: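 Full-length biotinylated WDR5 (N-His, C-AviTag, E. coli) captured (~3000 RU) on streptavidin SA chip; Biacore T200. HBS-EP pH 7.4 plus 5% DMSO running buffer, 40 μl/min.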

Row | SMILES | IC50 (WDR5 [1]) | EC50 (MV4-11 cells) | Kd (WDR5 [2])
1 | C[C@H]1CN(c2cc(F)c(C3=CCN(c4ncc(C#N)s4)C3)c(F)c2NC(=O)c2c[nH]c(=O)cc2C(F)F)CCN1C [Example 95, (S)—N-(3-(1-(5-cyanothiazol-2-yl)-2,5-dihydro-1H-pyrrol-3-yl)-6-(3,4-dimethylpiperazin-1-yl)-2,4-difluorophenyl)-4-(difluoromethyl)-6-oxo-1,6-dihydropyridine-3-carboxamide] | 13.8 nM | 96.4 nM | 0.79 nM
2 | C[C@H]1CN(c2cc(F)c(C3=CCN(C(=O)OC4(C)CCC4)CC3)c(F)c2NC(=O)c2c[nH]c(=O)cc2C(F)(F)F)CCN1C [Example 93, 1-Methylcyclobutyl(S)-4-(4-(3,4-dimethylpiperazin-1-yl)-2,6-difluoro-3-(6-oxo-4-(trifluoromethyl)-1,6-dihydropyridine-3-carboxamido)phenyl)-3,6-dihydropyridine-1(2H)-carboxylate] | 15.4 nM | 19.4 nM | 2.15 nM
3 | C[C@H]1CN(c2cc(F)c(C3=CCCN(C(=O)OC4CC(F)(F)C4)C3)c(F)c2NC(=O)c2c[nH]c(=O)cc2C(F)(F)F)CCN1C [Example 46, 3,3-Difluorocyclobutyl (S)-5-(4-(3,4-dimethylpiperazin-1-yl)-2,6-difluoro-3-(6-oxo-4-(trifluoromethyl)-1,6-dihydropyridine-3-carboxamido)phenyl)-3,6-dihydropyridine-1(2H)-carboxylate] | 14.9 nM | 607 nM | 2.97 nM
4 | C[C@H]1CN(c2ncc(-c3c(F)cc(N4CCN(C)[C@@H](C)C4)c(NC(=O)c4c[nH]c(=O)cc4C(F)(F)F)c3F)cn2)CCO1 [Example 60, N-(6-((S)-3,4-dimethylpiperazin-1-yl)-2,4-difluoro-3-(2-((S)-2-methylmorpholino)pyrimidin-5-yl)phenyl)-6-oxo-4-(trifluoromethyl)-1,6-dihydropyridine-3-carboxamide] | 11 nM | 11.5 nM | 1.26 nM
5 | C[C@H]1CN(c2cc(F)c(C3=CCCN(C(=O)OC4(C)CCC4)C3)c(F)c2NC(=O)c2c[nH]c(=O)cc2C(F)F)CCN1C [Example 94, 1-Methylcyclobutyl (S)-5-(3-(4-(difluoromethyl)-6-oxo-1,6-dihydropyridine-3-carboxamido)-4-(3,4-dimethylpiperazin-1-yl)-2,6-difluorophenyl)-3,6-dihydropyridine-1(2H)-carboxylate] | 17.4 nM | 93.9 nM | 2.17 nM
6 | C[C@@H]1CN(c2ncc(-c3c(F)cc(N4CCN(C)[C@@H](C)C4)c(NC(=O)c4c[nH]c(=O)cc4C(F)F)c3F)cn2)CCO1 [Example 129, 4-(Difluoromethyl)-N-(6-((S)-3,4-dimethylpiperazin-1-yl)-2,4-difluoro-3-(2-((R)-2-methylmorpholino)pyrimidin-5-yl)phenyl)-6-oxo-1,6-dihydropyridine-3-carboxamide] | 8.79 nM | 13.5 nM | 0.34 nM
7 | C[C@H]1CN(c2cc(F)c(C3=CCCN(c4ncc(C#N)s4)C3)c(F)c2NC(=O)c2c[nH]c(=O)cc2C(F)F)CCN1C [Example 99, (S)—N-(3-(1-(5-cyanothiazol-2-yl)-1,2,5,6-tetrahydropyridin-3-yl)-6-(3,4-dimethylpiperazin-1-yl)-2,4-difluorophenyl)-4-(difluoromethyl)-6-oxo-1,6-dihydropyridine-3-carboxamide] | 14.7 nM | 169 nM | 1.62 nM
8 | C[C@@H]1CN(c2cc(F)c(C3=CCN(C(=O)OC4CC(F)(F)C4)C3)c(F)c2NC(=O)c2c[nH]c(=O)cc2C(F)(F)F)C[C@H](C)N1C [Example 136, 3,3-Difluorocyclobutyl 3-(2,6-difluoro-3-(6-oxo-4-(trifluoromethyl)-1,6-dihydropyridine-3-carboxamido)-4-((3S,5R)-3,4,5-trimethylpiperazin-1-yl)phenyl)-2,5-dihydro-1H-pyrrole-1-carboxylate] | 14.9 nM | 42 nM | 1.16 nM
9 | C[C@@H]1CN(c2ccc(-c3c(F)cc(N4C[C@@H](C)N(C)[C@@H](C)C4)c(NC(=O)c4c[nH]c(=O)cc4C(F)F)c3F)cn2)CCO1 [Example 190, N-(2,4-difluoro-3-(6-((R)-2-methylmorpholino)pyridin-3-yl)-6-((3S,5R)-3,4,5-trimethylpiperazin-1-yl)phenyl)-4-(difluoromethyl)-6-oxo-1,6-dihydropyridine-3-carboxamide] | 12.8 nM | 48.6 nM | 0.96 nM
10 | CC(C)OC(=O)N1CCC=C(c2c(F)cc(N3CCN(C)[C@@H](C)C3)c(NC(=O)c3c[nH]c(=O)cc3C(F)(F)F)c2F)C1 [Example 38, Isopropyl (S)-5-(4-(3,4-dimethylpiperazin-1-yl)-2,6-difluoro-3-(6-oxo-4-(trifluoromethyl)-1,6-dihydropyridine-3-carboxamido)phenyl)-3,6-dihydropyridine-1(2H)-carboxylate] | 17.4 nM | 185 nM | 16.4 nM
11 | C[C@@H]1CN(c2ncc(-c3c(F)cc(N4C[C@@H](C)N(C)[C@@H](C)C4)c(NC(=O)c4c[nH]c(=O)cc4C(F)F)c3F)cn2)CCO1 [Example 130, N-(2,4-difluoro-3-(2-((R)-2-methylmorpholino)pyrimidin-5-yl)-6-((3S,5R)-3,4,5-trimethylpiperazin-1-yl)phenyl)-4-(difluoromethyl)-6-oxo-1,6-dihydropyridine-3-carboxamide] | 8.92 nM | 10.2 nM | 0.55 nM
12 | CC(C)[C@@H]1CN(c2nccc(-c3c(F)cc(N4CCN(C)[C@@H](C)C4)c(NC(=O)c4c[nH]c(=O)cc4C(F)F)c3F)n2)CCO1 [Example 124, 4-(Difluoromethyl)-N-(6-((S)-3,4-dimethylpiperazin-1-yl)-2,4-difluoro-3-(2-((R)-2-isopropylmorpholino)pyrimidin-4-yl)phenyl)-6-oxo-1,6-dihydropyridine-3-carboxamide] | 12.4 nM | 55.9 nM | 0.8 nM
13 | C[C@H]1CN(c2cc(F)c(C3=CCN(c4ccnc(C#N)n4)CC3)c(F)c2NC(=O)c2c[nH]c(=O)cc2C(F)F)CCN1C [Example 108, (S)—N-(3-(1-(2-cyanopyrimidin-4-yl)-1,2,3,6-tetrahydropyridin-4-yl)-6-(3,4-dimethylpiperazin-1-yl)-2,4-difluorophenyl)-4-(difluoromethyl)-6-oxo-1,6-dihydropyridine-3-carboxamide] | 14.2 nM | 29.9 nM | 1.65 nM

More lines, now with the values ahead:

Row | IC50 (WDR5 [1]) | EC50 (MV4-11 cells) | Kd (WDR5 [2]) | SMILES
14 | 14.9 nM | 32.7 nM | 2.48 nM | C[C@@H]1CN(c2cc(F)c(-c3cnc(N4CCOCC4)c(C#N)c3)c(F)c2NC(=O)c2c[nH]c(=O)cc2C(F)(F)F)C[C@H](C)N1C [Example 64, N-(3-(5-cyano-6-morpholinopyridin-3-yl)-2,4-difluoro-6-((3S,5R)-3,4,5-trimethylpiperazin-1-yl)phenyl)-6-oxo-4-(trifluoromethyl)-1,6-dihydropyridine-3-carboxamide]
15 | 18.2 nM | 99.1 nM | 0.7 nM | C[C@@H]1CN(c2cc(F)c(-c3ccc4c(c3)OCCO4)c(F)c2NC(=O)c2c[nH]c(=O)cc2C(F)(F)F)C[C@H](C)N1C [Example 72, N-(3-(2,3-dihydrobenzo[b][1,4]dioxin-6-yl)-2,4-difluoro-6-((3S,5R)-3,4,5-trimethylpiperazin-1-yl)phenyl)-6-oxo-4-(trifluoromethyl)-1,6-dihydropyridine-3-carboxamide]
16 | 24.9 nM | 101 nM | 3 nM | CNC(=O)c1ccc(-c2c(F)cc(N3C[C@@H](C)N(C)[C@@H](C)C3)c(NC(=O)c3c[nH]c(=O)cc3C(F)(F)F)c2F)cc1F [Example 24, 6-Oxo-N-(2,3′,6-trifluoro-4′-(methylcarbamoyl)-4-((3S,5R)-3,4,5-trimethylpiperazin-1-yl)-[1,1′-biphenyl]-3-yl)-4-(trifluoromethyl)-1,6-dihydropyridine-3-carboxamide]
17 | 10.1 nM | 31.2 nM | 0.96 nM | C[C@@H]1CN(c2cc(F)c(C3=CCN(C(=O)OC4(C)CCC4)C3)c(F)c2NC(=O)c2c[nH]c(=O)cc2C(F)(F)F)C[C@H](C)N1C [Example 141, 1-Methylcyclobutyl 3-(2,6-difluoro-3-(6-oxo-4-(trifluoromethyl)-1,6-dihydropyridine-3-carboxamido)-4-((3S,5R)-3,4,5-trimethylpiperazin-1-yl)phenyl)-2,5-dihydro-1H-pyrrole-1-carboxylate]
18 | 36.2 nM | 2870 nM | 5.01 nM | C[C@@H]1CN(c2cc(F)c(-c3ccc(F)c(C(N)=O)c3)c(F)c2NC(=O)c2c[nH]c(=O)cc2C(F)(F)F)C[C@H](C)N1C [Example 28, N-(3′-carbamoyl-2,4′,6-trifluoro-4-((3S,5R)-3,4,5-trimethylpiperazin-1-yl)-[1,1′-biphenyl]-3-yl)-6-oxo-4-(trifluoromethyl)-1,6-dihydropyridine-3-carboxamide]
19 | 12.9 nM | 48.4 nM | 0.53 nM | C[C@@H]1CN(c2cc(F)c(C3=CCN(c4ncc(C#N)s4)C3)c(F)c2NC(=O)c2c[nH]c(=O)cc2C(F)(F)F)C[C@H](C)N1C [Example 150, N-(3-(1-(5-cyanothiazol-2-yl)-2,5-dihydro-1H-pyrrol-3-yl)-2,4-difluoro-6-((3S,5R)-3,4,5-trimethylpiperazin-1-yl)phenyl)-6-oxo-4-(trifluoromethyl)-1,6-dihydropyridine-3-carboxamide]
